Assay results as given in PubChem BioAssay (NCI).
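These data come from cells grown in 96-well plates and exposed to compound for 48 hours at five concentrations. TGI: total growth inhibition.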

How the values were obtained:
Assay in all cases: DTP human tumour cell line panel, 48 h
[1] = tested on: A498 renal
[2] = tested on: ACHN renal
[3] = tested on: EKVX NSCLC
[4] = tested on: HCT-116 colon
[5] = tested on: HCT-15 colon
[6] = tested on: M14 melanoma
[7] = tested on: MOLT-4 leukemia
[8] = tested on: SK-MEL-2 melanoma
[9] = tested on: UO-31 renal
[10] = tested on: HOP-92 NSCLC

Structure (SMILES) | TGI [1] [µM] | TGI [2] [µM] | TGI [3] [µM] | TGI [4] [µM] | TGI [5] [µM] | TGI [6] [µM] | TGI [7] [µM] | TGI [8] [µM] | TGI [9] [µM] | TGI [10] [µM]
Clc1cc(OCC23CC4CC(CC(C4)C2)C3)nc(OCC23CC4CC(CC(C4)C2)C3)n1 | > 100 | > 100 | > 100 | > 100 | > 100 | > 100 | > 100 | > 100 | > 100 | –
COP(=O)(OC)c1ccc(NCc2cc(O)ccc2O)cc1 | > 100 | 32.2 | 56.4 | > 59.7 | 50.2 | > 61.1 | > 86.3 | > 87.8 | 29.3 | 45.5
COc1cc([C@@H]2c3cc4c(cc3[C@@H](N=Cc3ccc(C(=O)O[C@@H](C(=O)O[C@H]5C[C@@]6(O)[C@@H](OC(=O)c7ccccc7)[C@@H]7[C@]8(OC(C)=O)CO[C@@H]8C[C@H](O)[C@@]7(C)C(=O)[C@H](OC(C)=O)C(=C5C)C6(C)C)[C@@H](NC(=O)c5ccccc5)c5ccccc5)cc3)[C@H]3COC(=O)[C@H]23)OCO4)cc(OC)c1O | 26.2 | > 50 | > 47 | > 50 | > 50 | > 50 | > 50 | – | – | > 50
O=S(=O)(O)c1cc(Nc2ccnc3ccccc23)c2c(S(=O)(=O)O)cc(S(=O)(=O)O)cc2c1 | > 100 | – | > 100 | > 100 | > 100 | > 100 | > 100 | > 100 | > 100 | –
CC(C)N1CCC2(CC1)NNc1ncccc1-n1cccc12 | – | > 100 | > 100 | > 100 | – | > 100 | > 100 | > 100 | > 100 | –
CC(C)(C)OC(=O)N1Cc2cc(O)ccc2C[C@H]1C(=O)O | > 100 | > 100 | > 100 | > 100 | > 100 | – | > 100 | > 100 | – | > 100
c1ccc(CCN2CCN=C2Cc2ccccc2)cc1 | > 100 | > 100 | > 100 | > 100 | > 100 | > 100 | – | > 100 | > 100 | 93.8
C[C@H](CN1CC(=O)NC(=O)C1)N1CC(=O)NC(=O)C1 | > 100 | – | > 100 | > 100 | > 100 | – | > 47.5 | – | > 44.1 | > 100
COc1ccc(/C=N\NC(=O)Nc2cccc3ccccc23)cc1 | 51.6 | 66.6 | 95.2 | > 100 | > 100 | > 100 | – | 43.7 | > 100 | 42.1
CC1C2CC(CC2N)C1(C)C (configuration not stated) | > 100 | > 100 | > 100 | > 100 | – | > 100 | > 100 | – | > 100 | > 100
O=c1oc2c/c(=C\c3ccccc3)c(=O)c3cccc1c3-2 | > 100 | > 100 | > 100 | 71.2 | > 100 | 48.6 | – | – | 85.5 | 41.6
Cc1oncc1NC1=CC(=O)C(=O)c2ccccc21 | 17.9 | 16.7 | 32.5 | 10.6 | 12.2 | 17 | 11.9 | – | 27.9 | 24
COc1ccc(N=N/C(=N/NC(=O)c2cc(Cl)ccc2C(=O)c2ccccc2)c2ccc(N(CCC#N)CCC#N)cc2C)cc1 | – | 88.7 | 61.1 | 33.5 | 65.7 | 92 | 33.8 | 50 | 79.3 | –
Nc1nn(CC(O)CO)c(=O)s1 (configuration not stated) | > 100 | > 100 | > 100 | > 100 | > 100 | > 100 | > 100 | > 100 | > 100 | –
N#CCSc1c(-c2ccccc2)c(=O)n(-c2ccccc2)c(=S)n1-c1ccccc1 | – | > 100 | > 100 | > 100 | > 100 | > 100 | > 100 | > 100 | > 100 | > 100
Cc1c(O)c(=O)ccn1CCc1c[nH]c2ccccc12 | – | 23.5 | 91.7 | > 100 | > 100 | 40.2 | > 100 | – | – | 46.5
CN(C)CCCNc1cnc2cc3ccccc3cc2n1 | > 100 | > 100 | > 100 | 99.3 | 56 | 50.5 | 81.7 | 44.8 | – | 95.8
CC1=Nc2c(C#N)ncn2N=C(C)C1 | > 100 | > 100 | – | > 100 | – | > 100 | > 100 | > 100 | > 100 | > 100
Clc1ccc2nc(CC3CCCC3)[nH]c2c1 | – | 32.6 | 43.5 | 32 | 22.9 | 38.2 | 35 | 41.2 | – | 34
COc1ccc(S(=O)(=O)Nc2ccc(-c3csc(N4C(=O)/C(=C/c5ccccc5)N=C4c4ccccc4)n3)cc2)cc1Cl | 48.7 | > 100 | – | > 100 | 49.5 | 71.9 | > 100 | > 100 | 34.1 | 69.7
COc1nc2ccc(CNc3ccc(C(=O)O)cc3)cc2nc1OC | > 10 | > 10 | > 10 | > 10 | > 10 | > 10 | > 10 | > 10 | – | –
CCOC(=O)C1C[C@H]2CO[C@H](c3ccccc3)N2C1=O (some centres not stated) | – | > 100 | > 100 | > 100 | > 100 | > 100 | > 100 | > 100 | > 100 | > 100
C=CC[C@@H]1C=C[C@@H](C(=O)OC)n2c(=O)n(-c3ccccc3)c(=O)n21 | > 100 | > 100 | > 100 | > 100 | > 100 | > 100 | > 100 | – | > 100 | > 100
COc1cc2c(cc1OC(=O)c1cc3ccccc3[nH]1)N=C[C@@H]1CCCN1C2=O | 0.599 | 13 | 3.2 | 3.19 | > 34.2 | 0.387 | 0.553 | 0.55 | – | > 100
